Laboratory results taken from ChEMBL document CHEMBL1156829 (Proc Natl Acad Sci U S A, 2008).

Assays:
[1] = system: Plasmodium falciparum; experiment: NOVARTIS: Inhibition of Plasmodium falciparum 3D7 (drug-susceptible) proliferation in erythrocyte-based infection assay; format: functional, organism-based; conditions: Plasmodium falciparum, 3D7
[2] = system: Plasmodium falciparum; experiment: NOVARTIS: Inhibition of Plasmodium falciparum W2 (drug-resistant) proliferation in erythrocyte-based infection assay; format: functional, organism-based; conditions: Plasmodium falciparum, W2; read-out: EC50
[3] = NOVARTIS: Cytotoxicity against human hepatocellular carcinoma cell line (Huh7); format: toxicity, cell-based, Huh-7; conditions: Huh7 cells (hepatocellular carcinoma cell line)

| SMILES | EC50 [1] [µM] | EC50 [2] [µM] | CC50 [3] [µM] |
| --- | --- | --- | --- |
| OCC[n+]1c2ccccc2nc2ccc(N3CCOCC3)cc21.[O-][Cl+3]([O-])([O-])[O-] | 0.243 | 0.0564 | 35 |
| CCN(CC)CCCC(C)Nc1cc(C=Cc2ccc([N+](=O)[O-])cc2)nc2cc(OC)ccc12 (stereo unspecified) | 0.0316 | 0.0323 | 20.2 |
| CC=C[C@H]1O[C@@](O)([C@H](C)C(O)C(C)[C@@H]2OC(=O)C(OC)=CC(C)=C[C@H](C)[C@H](O)[C@H](CC)[C@H](O)C(C)CC(C)=CC=C[C@H]2OC)C[C@@H](O[C@@H]2C[C@H](O)[C@@H](OC(N)=O)[C@H](C)O2)[C@@H]1C (stereo partly specified) | > 0.503 | < 0.0186 | > 10 |
| CC(=NNC(=O)/C(=C\c1ccc([N+](=O)[O-])cc1)NC(=O)c1ccccc1)c1ccccn1 | 0.343 | 0.169 | > 100 |
| O=C(CCc1ccccc1)c1ccccc1OCC(O)CN1CCCCC1 (stereo unspecified) | 0.881 | 0.144 | 87.9 |
| FC(F)(F)c1cccc(C=NNc2nc3ccccc3[nH]2)c1 | 0.0946 | 0.115 | 63.2 |
| COc1cccc(NC(=O)c2cccc3c(=O)c4c([nH]c23)CCCC4)c1 | 0.957 | 0.169 | > 100 |
| Cc1cc(C)c2c(c1)c(-c1ccccc1)c(-c1ccccc1)n2CC(O)Cn1cnc(-c2ccccc2)c1-c1ccccc1 (stereo unspecified) | 1.35 | 0.155 | > 100 |
| COC(=O)C1=CNC=C(C(=O)OC)C1c1ccc(Cl)c([N+](=O)[O-])c1 | 0.135 | 0.165 | > 100 |
| O=C(Nc1cc(C(F)(F)F)ccc1N1CCOCC1)C(Cl)(Cl)Cl | 0.376 | 0.116 | 74.8 |
| COc1ccccc1C1CC(c2ccccc2)=NN1C(=O)c1ccccc1 (stereo unspecified) | 0.262 | 0.11 | 67 |
| Cc1oc2c(c1C(=O)N1CCC(C)CC1)C(=O)c1ccccc1C2=O | 0.222 | 0.0792 | 48.3 |
| CCc1ccc(C(Nc2cc(C)ccn2)c2ccc3cccnc3c2O)cc1 (stereo unspecified) | 1.47 | 0.163 | > 100 |
| COc1ccc(C2CC(=O)C3=C(C2)NC(C)=C(C(=O)OC2CCCC2)C3c2ccc(F)cc2)cc1OC (stereo unspecified) | 0.0126 | 0.0193 | 11.6 |
| O=C(Cc1ccccc1)N1CCOc2c(cc(-c3csc4ccccc34)cc2OCCc2ccccn2)C1 | 0.257 | 0.165 | > 100 |
| C=CCSc1nc(N)c2c3c(sc2n1)CN(CCC)CC3 | 0.623 | 0.168 | > 100 |
| COCC(=O)NCc1ccc(OC2CCN(CC(c3ccccc3)c3ccccc3)CC2)cc1 | 0.46 | < 0.0167 | > 10 |
| Cc1cc(C)c2c(c1)-c1c(ssc1=S)C(C)(C)N2C(=O)COc1nc2ccccc2s1 | 0.125 | 0.169 | > 100 |
| C=CC1CC23CC(C(OC(=O)CCC(=O)O)c4ccnc5ccc(OC)cc45)N2CCC13 (stereo unspecified) | 0.014 | 0.0775 | 45.7 |
| N=c1c2c(n(Cc3ccccc3Cl)c3c1CCC3)CCCC2 | 0.222 | 0.174 | > 100 |
| Cc1ccc(Cn2c(SCc3ccc(C(=O)NCCc4ccccc4)cc3)nc3ccncc32)cc1 | 0.7 | 0.174 | > 100 |
| COc1cccc(-c2ccc(O)c(CN3CCC(C)CC3)c2)n1 | 0.337 | 0.129 | 75 |
| C#CCNC(=O)c1ccc(OC2CCN(CC(c3ccccc3)c3ccccc3)CC2)c(OC)c1 | 0.207 | 0.0883 | 55 |

| SMILES | EC50 [1] [µM] | EC50 [2] [µM] | CC50 [3] [µM] |
| --- | --- | --- | --- |
| CCOC(=O)c1nnn(-c2nonc2N)c1-c1ccc(Cl)cc1 | 0.397 | 0.16 | > 100 |
| CN(Cc1cc(-c2ccccc2)ccc1O)CC(O)c1ccccc1 (stereo unspecified) | 0.438 | 0.0181 | > 10 |
| O=C(NCc1ccccc1)c1cnc(NCCC(c2ccccc2)c2ccccc2)nc1NC1CC1 | > 1.16 | < 0.0158 | > 10 |
| Cc1ccc(NC(=O)N(CCN(C)C)Cc2cc3cc4c(cc3[nH]c2=O)OCCO4)cc1 | 0.984 | 0.157 | > 100 |
| Cc1ccc(Cn2c(N3CCC(C(=O)NCc4ccccn4)CC3)nc3ccccc32)cc1 | 0.484 | 0.185 | > 100 |
| COc1ccc(CCNc2nc(NCCCN3CCCCC3C)ncc2C(=O)NCc2ccccc2)cc1OC (stereo unspecified) | 0.323 | < 0.0161 | > 10 |
| Cc1ccc(C)c(Oc2c(C(F)(F)F)oc3c(CN4CCN(C)CC4)c(O)ccc3c2=O)c1 | 0.832 | 0.185 | > 100 |
| CCOC(=O)c1c(CNCCN(CC)CC)n(C)c2cc(Br)c(O)cc12 | 0.515 | 0.185 | > 100 |
| N#Cc1c(N)nc(C(Cl)(Cl)Cl)nc1-c1ccccc1 | 0.498 | 0.184 | > 100 |
| CCOC(=O)C1=C(C)NC2=C(C(=O)CC(C)(C)C2)C1c1ccc(Cl)cc1Cl (stereo unspecified) | 0.281 | 0.121 | 66 |
| CC(C)CCN1C(=O)N(CCN(C)C)C(=O)C12CCN(Cc1ccc(O)cc1)CC2 | 0.74 | 0.123 | 68.5 |
| CCCOc1ccc(C2Sc3ccccc3N=C3C2=C(O)c2ccccc23)cc1OC (stereo unspecified) | 0.483 | 0.178 | > 100 |
| CCN(CC)C(=O)CSc1nnc(-c2ccccn2)n1-c1ccc(OC)cc1 | 1.29 | < 0.00558 | 3.19 |
| Oc1ccc(-c2ccnc3cc(Cl)ccc23)cc1CNCC1(O)CCCCC1 | 1.02 | < 0.0238 | > 13.7 |
| CCOC(=O)C1=C(C)NC2=C(C(=O)C(C(=O)OCC)C(c3cccc(OC)c3)C2)C1c1ccc(OC)c(OC)c1 (stereo unspecified) | 0.376 | 0.167 | > 100 |
| CCc1c(C)nc2cc(-c3cc(OC)cc(OC)c3)nn2c1NCCCn1ccnc1 | 2.87 | 0.185 | > 100 |
| CCN(C(=O)CSc1nc(-c2ccc(C(C)C)cc2)no1)c1cccc(C)c1 | 0.356 | 0.183 | > 100 |
| Cc1cc(C)n(N=Cc2ccc(Cl)cc2)c(=O)c1C#N | 1.07 | 0.183 | > 100 |
| COC(=O)C1=C(C)NC2=C(C(=O)CC(c3ccc(OC)c(OC)c3)C2)C1c1ccc(Br)cc1 (stereo unspecified) | 0.45 | 0.181 | > 100 |
| CC(C(=O)NCCCN)N(Cc1ccccc1)S(C)(=O)=O (stereo unspecified) | > 1.25 | 0.0162 | > 10 |
| FC(F)(F)c1cccc(NC(=S)N2CCCC2c2ccccc2Cl)c1 (stereo unspecified) | 0.187 | 0.185 | > 100 |
| CCOC(=O)C1=C(C)NC(=Cc2cc(C)n(-c3ccc(C)cc3)c2C)C1=O | 0.121 | 0.169 | > 100 |
| CCOC(=O)C1CCN(C(c2cc3cc(OC)c(OC)cc3[nH]c2=O)c2nnnn2Cc2ccccc2)CC1 (stereo unspecified) | 0.419 | 0.158 | > 100 |

| SMILES | EC50 [1] [µM] | EC50 [2] [µM] | CC50 [3] [µM] |
| --- | --- | --- | --- |
| CCOC(=O)CCC(=O)N(C)CCCNc1ccnc2cc(Cl)ccc12 | 0.673 | < 0.0156 | > 10 |
| CCOC(=O)CCCCC(=O)c1[nH]c(=O)[nH]c1Cn1ccnc1 | 0.152 | 0.165 | > 100 |
| CCN1CCN(Cc2c(O)ccc3c(=O)c(Oc4cccc(C)c4)c(C(F)(F)F)oc23)CC1 | 1.13 | 0.161 | > 100 |
| CC[n+]1c(SC)ccc2cc(OC)ccc21 | 0.0924 | 0.186 | > 100 |
| Cc1ccn2c(NC(C)(C)CC(C)(C)C)c(-c3ccccc3OC(=O)CCc3ccccc3)nc2c1 | 0.853 | 0.0186 | > 10 |
| CC(C)CN(CC(=O)Nc1cc(C(C)(C)C)nn1-c1ccccc1)C(=O)c1cc(Cl)cc(Cl)c1 | 1.23 | < 0.0167 | > 10 |
| COC(=O)[C@@H]1C[C@@H](NC(=O)c2ccc(OC)cc2OC)CN1Cc1ccc(C(F)(F)F)cc1 | 0.347 | 0.159 | > 100 |
| COc1ccc(C2Sc3ccccc3N=C3C2=C(O)c2ccccc23)cc1 (stereo unspecified) | 0.238 | 0.175 | > 100 |
| CC(C)C(=O)NCCCCNc1ccnc2cc(Cl)ccc12 | 1.6 | < 0.0185 | > 10 |
| CN(CCCNc1ccnc2cc(Cl)ccc12)C(=O)c1ccc(-c2ccccc2)cc1 | 0.326 | < 0.0156 | 10.1 |
| COc1ccccc1NC(=O)N1CCN(C(=O)c2nc(-c3ccccc3)nc(C)c2C(=O)OC(C)C)CC1C (stereo unspecified) | 0.529 | < 0.0169 | > 10 |
| Nc1ccc(N2CCCCCC2)cc1 | 0.153 | 0.183 | > 100 |
| CC(C)(C)c1ccc2c(c1)CN(C1CCCCC1)CO2 | 0.099 | 0.0369 | 20.8 |
| CCN(CC)CCN1C(=O)c2ccccc2NC1c1ccc(N(C)C)cc1 (stereo unspecified) | 0.285 | 0.157 | > 100 |
| COC(=O)C1=CNC=C(C(=O)OC)C1c1ccc(Cl)c(Cl)c1 | 0.114 | 0.105 | > 64.9 |
| CCN1c2ccccc2N(C)C1(C)c1ccccc1 (stereo unspecified) | 0.0465 | 0.0493 | 28.8 |
| COc1ccc(-[n+]2cc(-c3ccc(Br)cc3)n3c2SCCC3)cc1 | 0.609 | 0.172 | > 100 |
| Fc1cc(F)c(C2SCCN2C(=S)Nc2cccc(C(F)(F)F)c2)c(F)c1 (stereo unspecified) | 0.273 | 0.187 | > 100 |
| N#Cc1c2c(c(N3CCN(CCO)CC3)n3c1nc1ccccc13)CCC2 | 0.207 | 0.177 | > 100 |
| CCCN1CCN(C(=O)C(=O)Nc2ccc3nc4n(c(=O)c3c2)CCCCC4)CC1 | 1.69 | 0.165 | > 100 |
| COc1ccccc1NC(=O)N(Cc1ccccc1)C(C)c1nc2ccccc2c(=O)n1-c1cc(C)ccc1OC (stereo unspecified) | 0.344 | < 0.0156 | > 10 |
